Measurements published in US11434490B2, “Fluorogen-binding RNA aptamers” (CENTRE NATIONAL DE LA RECHERCHE SCIENTIFIQUE, priority 2017, dated 2022).

Tests used:
HEK293T cells = assay: Cellular imaging of transfected Mango tagged RNAs; type: cell-based; details: fixed cells
Protocol: HEK293T cells were grown in Dulbecco Modified Eagle's Medium containing 10% Fetal Bovine Serum, 2 mM D-Glucose, 2 mM L-Glutamine, 1 mM Sodium Pyruvate and 100 U/ml Penicillin/Streptomycin (Thermo Fisher) and maintained at 37° C. with 5% CO2 in a humidified incubator. Cells used for imaging were cultured in Ibidi glass bottomed 8-well chamber slides (Ibidi GmbH).
RNA was transfected directly into 8-well chamber slides using the Lipofectamine-based CRISPRMAX reagent following the manufacturers guidelines (Invitrogen). Initially 125 nM RNA containing 10 mM Sodium Phosphate buffer (pH 7.2), 100 mM KCl and 1 mM MgCl2 was incubated at room temperature followed by a 1:1 dilution in OptiMEM prior to transfection. The RNA transfected was incubated at 37° C. for 1 hour in complete growth medium.
Cells were fixed in PBS containing 4% paraformaldehyde for 10 min on ice (Thermo Fisher) followed by permeabilization in 0.2% Triton X-100 for 10 min at room temperature. Cells were first blocked (2% BSA in PBS) for 30 min followed by primary antibody (1:50-1:500 dilutions) incubation for 120 min in blocking solution.
Primary antibodies used here were: Anti-Ribosomal Protein S6 (MAB5436, R&D Systems), Anti-ATP5B (ab14730, Abcam), Anti-GW182 (ab7052, Abcam), Anti-EEA-1 (ab70521, Abcam), Anti-LSm3 (NBP2-14206, Novus Biologicals), Anti-TIAR (sc-398372, Santa Cruz). Secondary antibodies used were Donkey Anti-mouse and Donkey Anti-Rabbit Alexa Fluor 680 (Molecular Probes). Primary antibodies were washed three times for 20 min each in blocking solution followed by incubation with secondary antibody at 1:500 dilution for 60 min, which was subsequently washed as above.
To visualize the nuclear boundary in live cells, a plasmid expressing a fluorescently tagged histone protein (EBFP2-H2B-6, Addgene plasmid 55243) was transfected using FuGene 6 (Promega) 24 h prior to RNA transfection. […] Following incubation of the RNA transfection, the cells were washed once with PBS and replaced with live-cell imaging media (Fluorobrite DMEM supplemented with 20 mM HEPES, Invitrogen). Live and fixed cell images were taken using a Zeiss Elyra wide-field microscope by exciting at 405 nm (Blue), 488 nm (Green) and 642 nm (Far-Red) and detecting at 420-480 nm, 495-550 nm and >650 nm, respectively. Live cells were maintained at 37° C. with 5% CO2 in a stage top incubator (Tokai Hit). Images were processed using FIJI and spot detection analysis was performed on each maximum projection by the spot detector plugin in the ICY image analysis software, which detects significant foci with a pixel area 3×3 pixels.

[1] = cited from earlier work
[2] = Fluorescence titration, binding affinity for TO1-Biotin; details: for Kd: ligand TO1-B (TO1-Biotin)
Text: (§1) FIG. 2|RNA Mango I, II, III and IV core sequences and their properties. (a) Color coded alignment of RNA Mango I, II, III and IV. G residues in yellow are protected from DMS cleavage (data from panel d) when folded in the presence of fluorophore. Quadruplex stacks and their associated propeller sequences are numbered 1 through 4. The GAAA isolation motif of Mango I, together with two adenines essential for binding, are shown in green and red respectively. Purple shading represents a flanking stem region common for all four Mango aptamers. Schematic: A tertiary structure schematic of Mango I, showing tier 1, 2 and 3 of its quadruplex structure (T1, T2 and T3) and color-coded as in (a). […] Bottom: Top view of the Mango I core (PBD ID: 5V3F), showing the T3 tier of the quadruplex and relevant propeller residues, color coding matches the schematic and panel a. […] KD values are shown next to each titration. (c) Same as for panel b but using 20 nM TO3-Biotin. Data for panels b and c have been normalized such that Mango I has a maximum fluorescence of 1. Error bars are standard deviation of three replicates. (d) DMS chemical protection patterns for the four Mango aptamers. 3′ end-labelled RNA (terminal ^32pCp shown as a black asterisk) was subjected to DMS chemical modification followed by reduction by NaBH4 and aniline cleavage as described in the methods. […] Legend: T1—denatured T1 ladder; OH—partial alkaline hydrolysis ladder; (−) DMS—denatured reaction with ddH2O added in place of DMS; 80° C.
(§2) Fluorescence data was gathered using a Varian Cary Eclipse Spectrophotometer unless otherwise stated. […] Fluorescence was measured at the maximum excitation and emission wavelengths of each complex (FIG. 13).
Where F([RNA]) is the fluorescence as a function of RNA concentration [RNA], Fmax is the maximal fluorescence of the bound complex and Funbound the fluorescence of the unbound fluorophore. When the fluorescence of Funbound was undetectable, it was set to zero.
(§3) Fluorescence readings were recorded using a Varian Cary Eclipse Spectrophotometer set to measure at the maximum excitation and emission wavelengths of the Mango II aptamer dye complex. Fluorescence titrations were performed in Mango selection buffer (WB: 140 mM KCl, 1 mM MgCl2, 10 mM NaH2PO4 pH 7.2, 0.05% Tween-20).

[3] = Fluorescence enhancement of TO1-Biotin; type: biochemical; details: ligand TO1-B; calculated relative to wt from the binding titration
Protocol: (§4) The bandwidth for all measurements was 1.5 nm for all experiments. Measurements were performed in a 0.2 cm path length cuvette in a background of 20 mM MOPS pH 7.0, 150 mM KCl, 10 μM EDTA. Fluorescence readings were taken in the absence of RNA at a ligand concentration of 0.82 μM. A concentrated, annealed stock of RNA was then added to the cuvette resulting in a final concentration of 2 μM RNA and allowed to equilibrate for 1 minute prior to taking an emission reading. Fluorescence enhancement was determined by dividing the fluorescence signal of ligand in the presence of RNA by the fluorescence signal in the absence of RNA corrected for the background of the instrument.

[4] = Fluorescence titration, binding affinity for TO3-Biotin; details: ligand TO3-B (TO3-Biotin)
Text: as §1, §2
Or to the following equation for TO3-Biotin and NMM experiments: F([RNA])=Fmax[RNA]/(KD+[RNA])+Funbound (Eq. 2) Fmax was determined using Eq. 1 or Eq. 2 as appropriate. Temperature Dependent Fluorescence and UV Melting Curves
as §3

[5] = Fluorescence enhancement of TO3-Biotin; type: biochemical; details: ligand TO3-B; calculated relative to wt from the binding titration
Protocol: as §4

[6] = Salt dependence of Mango/TO1-Biotin fluorescence: K+ titration; type: binding; details: 25 nM RNA, 50 nM TO1-Biotin, 10 mM Tris pH 7.2
Protocol: (§5) FIG. 10|Salt dependence of new Mango variants. Dependence of fluorescence of each Mango for (a) K^+, (b) Na^+ in place of K^+, and (c) Mg^2+ ions in a buffer containing 140 mM K^+. […] 10 mM Tris buffer (pH 7.2) was used in place of phosphate of the WB buffer to avoid monovalent counter ions. Color-coding is as follows: Black—Mango I, Blue—Mango II, Green—Mango III, Orange—Mango IV. Hill coefficients are fitted to dark points. Points in lighter shade have been excluded from the fit. Error bars are standard deviations of three replicates.

[7] = Salt dependence of Mango/TO1-Biotin fluorescence: Na+ in place of K+; type: binding
Protocol: as §5

[8] = Salt dependence of Mango/TO1-Biotin fluorescence: Mg2+ titration; details: in the presence of potassium; Mg2+ 256 mM
Protocol: as §5

[9] = Brightness and photophysics of Mango fluorophore complexes; type: physicochemical
Text: as §1
FIG. 13|Photophysics: excitation/emission. (a) Excitation (dark curve) and emission (light curve) spectra of each Mango. All Mangos have Δex max=510 nm and Δem max=535 nm. Color-coding is as follows: Black—Mango I, Blue—Mango II, Green—Mango III, Red—Mango IV.
as §2

[10] = Formaldehyde resistance assay; type: physicochemical; details: in vitro, TO1-Biotin
Protocol: FIG. 15|Effect of formaldehyde on Mango fluorescence. […] In (b) RNA is incubated with the corresponding amounts of formaldehyde first for one hour, then TO1-Biotin is added. Data for each panel is normalized to RFU at the 0% formaldehyde, 0 min point.
RNA Mango aptamers were incubated with TO1-Biotin in WB buffer for at least one hour until equilibrium fluorescence was reached. […] Fluorescence was measured as a kinetic run at a rate of 2 readings per minute using a Varian Cary Eclipse Fluorescence Spectrophotometer, ex/em=510±2.5/535±5 nm.

[11] = Photobleaching under constant illumination; details: identical illumination conditions, on average
Protocol: FIG. 16|Formation of 5S-Mango foci and their dynamics in live cells. (a) 5S-Mango IV imaged post cell fixation at 5, 15, 30 and 60 mins after transfection using Lipofectamine based CRISPRMAX transfection reagent. […] (c) Root mean-squared displacement (RMSD) of three observed foci with different diffusive behaviors, fast (Green), slow (Blue) and static (Red) shown in Video 3. Scale bars are 10 μm and arrows indicate foci of interest. (d) Normalized photobleaching traces of 5S-F30-Mango I and IV compared to 5S-F30-dBroccoli under constant illumination with an exposure time of 200 ms. Photobleaching half-lives are stated in the table adjacent and were calculated from an exponential fit of each curve.

5S-F30-Mango IV: 5S rRNA tagged with Mango IV in F30 scaffold; SEQ ID NO: 6894
foci formation after transfection (HEK293T cells): consistently exhibit visible foci
fraction of foci that are clearly nuclear (HEK293T cells): ~5%
fraction of foci that are cytoplasmic (HEK293T cells): ~85%
mean intensity of foci against 5S-F30-Control background (HEK293T cells; 200 nM TO1-Biotin): two to three-fold higher

CN1C(=Cc2cc[n+](C)c3ccccc23)Sc2ccccc21 [TO1, Thiazole Orange]
fluorescence quantum yield ϕ ([1]; aqueous solution): 2×10^−4
intracellular half-life [1]: short intracellular half-life
membrane permeability [1]: plasma and nuclear membrane permeability
fluorescence quantum yield ([1]; inserted into double-stranded helical nucleic acids): 0.11

Mango II - A12U: Mango-II point mutant; SEQ ID NO: 6908 (GGCACGUACGAAGGUGAGGAGAGGAAGAGGAGAGUACGUGC; chemistry not given here)
Kd [2]: 0.4 ± 0.07 nM
FIE (fluorescence enhancement) † [3]: 1342 †

Mango II - A15U A20U A25U A26U A31U: Mango-II five-fold mutant; SEQ ID NO: 6910 (GGCACGUACGAAGGUGAGGUGAGGUUGAGGUGAGUACGUGC; chemistry not given here)
Kd [2]: 1.92 ± 0.39 nM
FIE (fluorescence enhancement) † [3]: 1133 †

Mango II - A15U A20U A25U: Mango-II triple mutant; SEQ ID NO: 6911 (GGCACGUACGAAGGUGAGGUGAGGUAGAGGAGAGUACGUGC; chemistry not given here)
Kd [2]: 0.76 ± 0.24 nM
FIE (fluorescence enhancement) † [3]: 1329 †

Mango II - A17U: Mango-II point mutant; SEQ ID NO: 6909 (GGCACGUACGAAGGAGAGGUGAGGAAGAGGAGAGUACGUGC; chemistry not given here)
Kd [2]: 1 ± 0.16 nM
FIE (fluorescence enhancement) † [3]: 1237 †

Mango II - A22C: Mango-II point mutant; SEQ ID NO: 6906 (GGCACGUACGAAGGAGAGGAGAGGCAGAGGAGAGUACGUGC; chemistry not given here)
Kd [2]: 0.9 ± 0.2 nM
Kd [4]: 5.1 ± 1.4 nM
FIE (fluorescence enhancement) † [3]: 1407 †
FIE (fluorescence enhancement) † [5]: 37 †

Mango II - A22G: Mango-II point mutant; SEQ ID NO: 6907 (GGCACGUACGAAGGAGAGGAGAGGGAGAGGAGAGUACGUGC; chemistry not given here)
Kd [2]: 6.4 ± 1.5 nM
Kd [4]: 7.6 ± 3.7 nM
FIE (fluorescence enhancement) † [3]: 1224 †
FIE (fluorescence enhancement) † [5]: 52 †

Mango-IV: minimal construct engineered from isolate R5-NMM-5
TO1-Biotin binding affinity (in words) [2]: slightly weaker affinities than Mango-I
decrease in binding affinity on replacing CGA with GAA ([2]; Mango-IV sequence variant against Mango-IV): four-fold
Kd [6]: 64 ± 24 mM
Hill Coefficients K^+ ([6]; * estimated from initial rise of fluorescence): 1.5 ± 0.2*
fluorescence in the presence of sodium ions [7]: limited fluorescence response
effect of high levels of Mg^2+ on fluorescence [8]: significantly resistant
brightness of the TO1-Biotin bound complex ([9]; TO1-Biotin complex): 32,000 M^−1cm^−1
brighter than Mango-I ([9]; TO1-Biotin, FIG. 2b): 3 fold
resistance to formaldehyde [10]: substantially resistant to formaldehyde
bleaching half-lives longer than RNA Spinach [11]: 10 times
